Structures are written as SMILES. pIC50: −log10 of the molar value.

These results are taken from patent US20250179094A1, “TGF-B INHIBITOR COMPOUND AND USE THEREOF” (Medinno Pharmaceutical Technology (Zhuhai) Co., Ltd., priority 2022, published 2025).

This assay concerns the target human TGFβR1 (Homo sapiens (Human), UniProt P36897). Kind of assay: TGFβR1 kinase activity assay (ADP-Glo method). It is filed as biochemical. Particulars: ATP 5 uM, TGFβR1tide substrate, 60 minutes at room temperature. As to the method:
The principle of the activity assay was that TGFβR1 phosphorylates the substrate TGFβR1tide, consuming ATP in the process. […] The specific experimental steps were as follows. Compounds were diluted 4-fold in DMSO in a dilution plate, with the final starting concentration of the compounds being 10 μM, across 10 concentration gradient points. The compounds were then further diluted 50-fold into the kinase reaction buffer and incubated on a shaker for 20 minutes. Kinase was formulated with an enzyme reaction buffer. 2 μl kinase was added to each well of the reaction plate. 1 μl of the compound diluted in buffer was added to each well, and then the plate was sealed with a sealing membrane and centrifuged at 1000 g for 30 seconds, leaving it at room temperature for 10 minutes. Solutions of TGFβR1tide and ATP were prepared with the kinase reaction buffer, and 2 μL of the TGFβR1tide/ATP solution was added to the reaction plate. The plate was sealed with a sealing film and centrifuged at 1000 g for 30 seconds. It was allowed to react at room temperature for 60 minutes. Subsequently, 4 μL of ADP-Glo was transferred to a 384-well reaction plate and centrifuged at 1000 rpm/min for 1 minute, followed by incubation at 25° C. for 40 minutes. Then, 8 μL of Detection solution was transferred to the 384-well reaction plate and centrifuged at 1000 rpm/min for 1 minute, after which it was incubated at 25° C. for 40 minutes. The RLU (Relative Luminescence Unit) signal was read using a BMG microplate reader, which was used to characterize the degree of kinase activity.
3.1 The inhibition rate was calculated as follows: inhibition rate of compound (% inh)=100%−(compound−positive control)/(negative control−positive control)*100%.
The IC50 (half inhibition concentration) of a compound was obtained using the following non-linear fitting equation, wherein data analysis was performed using Graphpad 7.0 software.
X: log value of compound concentration; and Y: inhibition rate (% inhibition)
In general terms: In ADP-Glo the light output rises with the ADP produced.

human TGFβR1, sequence (P36897 34-503): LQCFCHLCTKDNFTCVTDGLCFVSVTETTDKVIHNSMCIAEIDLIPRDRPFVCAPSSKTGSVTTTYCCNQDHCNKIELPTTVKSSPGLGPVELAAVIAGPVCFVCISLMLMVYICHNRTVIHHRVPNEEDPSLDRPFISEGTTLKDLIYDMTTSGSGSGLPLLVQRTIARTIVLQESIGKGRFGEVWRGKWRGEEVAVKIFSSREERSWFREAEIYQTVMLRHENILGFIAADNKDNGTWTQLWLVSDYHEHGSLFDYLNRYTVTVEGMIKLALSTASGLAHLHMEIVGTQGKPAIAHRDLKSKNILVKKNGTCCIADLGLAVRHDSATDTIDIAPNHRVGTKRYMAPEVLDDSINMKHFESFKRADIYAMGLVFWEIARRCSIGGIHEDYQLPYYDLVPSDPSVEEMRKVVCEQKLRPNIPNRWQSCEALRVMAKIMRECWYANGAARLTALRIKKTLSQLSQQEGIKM

For the compound `CC(=O)N1Cc2nc(-c3cc(-c4c(-c5cccc(C)n5)nc5n4CCC5)ccn3)[nH]c2C1` [Compound 1, 1-(2-(4-(2-(6-methylpyridin-2-yl)-6,7-dihydro-5H-pyrrolo[1,2-a]imidazol-3-yl)pyridin-2-yl)-4,6-dihydropyrrolo[3,4-d]imidazol-5(1H)-yl)ethan-1-one], the pIC50 – broadly, −log10 of the IC50, conventionally taken in molar units – is 7.68.

Turning to `Cc1cccc(-c2nc3n(c2-c2ccnc(-c4nc5c([nH]4)CNC5)c2)CCC3)n1` [Compound 2, 2-(4-(2-(6-methylpyridin-2-yl)-6,7-dihydro-5H-pyrrolo[1,2-a]imidazol-3-yl)pyridin-2-yl)-1,4,5,6-tetrahydropyrrolo[3,4-d]imidazole], the pIC50 was 7.64. Regarding `Cc1cccc(-c2nc3n(c2-c2ccnc(-c4nc5c([nH]4)CN(C)C5)c2)CCC3)n1` [Compound 3, 5-methyl-2-(4-(2-(6-methylpyridin-2-yl)-6,7-dihydro-5H-pyrrolo[1,2-a]imidazol-3-yl)pyridin-2-yl)-1,4,5,6-tetrahydropyrrolo[3,4-d]imidazole], the pIC50 was 8.13. Turning to `Cc1cccc(-c2nc3n(c2-c2ccnc(-c4nc5c([nH]4)CN(C(=O)N4CCN(C)CC4)C5)c2)CCC3)n1` [Compound 4, (4-methylpiperazin-1-yl)(2-(4-(2-(6-methylpyridin-2-yl)-6,7-dihydro-5H-pyrrolo[1,2-a]imidazol-3-yl)pyridin-2-yl)-4,6-dihydropyrrolo[3,4-d]imidazol-5(1H)-yl)ketone], the pIC50 was 8.42. Compared with the last compound, the pIC50 is 0.29 log units higher. In turn, `Cc1cccc(-c2nc3n(c2-c2ccnc(-c4nc5c([nH]4)CN(S(C)(=O)=O)C5)c2)CCC3)n1` [Compound 9, 2-(4-(2-(6-Methylpyridin-2-yl)-6,7-dihydro-5H-pyrrolo[1,2-a]imidazol-3-yl)pyridin-2-yl)-5-(methylsulfonyl)-1,4,5,6-tetrahydropyrrolo[3,4-d]imidazole] showed a pIC50 of 8.27. `Cc1cccc(-c2nc3n(c2-c2ccnc(-c4nc5c([nH]4)CN(C(=O)C4CC(O)C4)C5)c2)CCC3)n1` (centres unmarked) [Compound 10, (3-Hydroxycyclobutyl)(2-(4-(2-(6-methylpyridin-2-yl)-6,7-dihydro-5H-pyrrolo[1,2-a]imidazol-3-yl)pyridin-2-yl)-4,6-dihydropyrrolo[3,4-d]imidazol-5(1H)-yl)ketone]: the pIC50 is 8.66. The value for `Cc1cccc(-c2nc3n(c2-c2ccnc(-c4nc5c([nH]4)CN(C(=O)c4cnn(C)c4)C5)c2)CCC3)n1` [Compound 11, (1-Methyl-1H-pyrazol-4-yl)(2-(4-(2-(6-methylpyridin-2-yl)-6,7-dihydro-5H-pyrrolo[1,2-a]imidazol-3-yl)pyridin-2-yl)-4,6-dihydropyrrolo[3,4-d]imidazol-5(1H)-yl)ketone] was 7.94; that for `Cc1cccc(-c2nc3n(c2-c2ccnc(-c4nc5c([nH]4)CN(CC(C)O)C5)c2)CCC3)n1` (centres unmarked) [Compound 12, 1-(2-(4-(2-(6-Methylpyridin-2-yl)-6,7-dihydro-5H-pyrrolo[1,2-a]imidazol-3-yl)pyridin-2-yl)-4,6-dihydropyrrolo[3,4-d]imidazol-5(1H)-yl)propan-2-ol] was 8.37. In turn, `Cc1cccc(-c2nc3n(c2-c2ccnc(-c4nc5c([nH]4)CN(C4CCN(C)CC4)C5)c2)CCC3)n1` [Compound 13, 5-(1-Methylpiperidin-4-yl)-2-(4-(2-(6-methylpyridin-2-yl)-6,7-dihydro-5H-pyrrolo[1,2-a]imidazol-3-yl)pyridin-2-yl)-1,4,5,6-tetrahydropyrrolo[3,4-d]imidazole] gave a pIC50 of 7.92.

With `Cc1cccc(-c2nc3n(c2-c2ccnc(-c4nc5c([nH]4)CN(C(=O)N4CCOCC4)C5)c2)CCC3)n1` [Compound 14], the pIC50 was 8.10.

In turn, `Cc1cccc(-c2nc3n(c2-c2ccnc(-c4nc5c([nH]4)CN(C4CCC(O)CC4)C5)c2)CCC3)n1` (centres unmarked) [Compound 25, 4-(2-(4-(2-(6-Methylpyridin-2-yl)-6,7-dihydro-5H-pyrrolo[1,2-a]imidazol-3-yl)pyridin-2-yl)-4,6-dihydropyrrolo[3,4-d]imidazol-5(1H)-yl)cyclohexan-1-ol] showed a pIC50 of 7.60.
